According to US3975524A, “3-Piperazino-isoquinolines and salts thereof” (Boehringer Ingelheim GmbH, priority 1974, dated 1976):
Like-named read-outs stand apart in the source and are kept apart here.

How the values were obtained:
platelet stickiness = assay: retention test according to Morris (inhibition of platelet stickiness on glass beads); assay type: cell-based; settings: human citrate-blood, 10 min at 37°C
Description: 1. The inhibiting effect upon the platelet stickiness was determined by means of the so-called retention test according to Morris [see E. Deutsch et al, 1. Internationales Symposium uber Stoffwechsel und Membranpermeabilitat von Erythrocyten und Thrombocyten, Vienna, Austria (1969); Georg Thieme Verlag, Stuttgart, Germany]. 1 ml of human citrate-blood is pipetted into each of a number of small test tubes, and the test compound is added to various final concentrations. The tubes are incubated for 10 minutes at 37°C. 1 gm of glass beads (glass beads for gas-chromatography) is added to half of the tubes. Finally, the closed tubes are attached to a vertical wheel and rotated for 1 minute. By this means good contact is obtained between the glass beads and the blood. The tubes are then allowed to stand at room temperature for another hour, after which time a satisfactory sedimentation of erythrocytes has taken place. 0.01 ml of the supernatant plasma is removed, diluted to 1:8,000 with celloscope solution, and the platelet count is read in the celloscope.

bleeding time = assay: prolonging effect upon the bleeding time, method of Duke; assay type: in vivo; settings: 10 mgm/kg per os, mice, vs untreated animals
Description: 3. The prolonging effect upon the bleeding time was ascertained by the method of Duke, J. Amer. Med. Assoc. 15, 1185 (1910). 10 mgm/kg of the test compound were given per os to non-anesthetized mice. After 1 or 3 hours, about 0.5 mm was cut off from the tail of each animal, and the exuded blood was carefully soaked up with filter paper at intervals of 30 seconds. The number of drops of blood so obtained was used as a measure for the bleeding time compared to untreated animals (5 animals/test).

thrombocyte aggregation [1] = assay: inhibition of thrombocyte aggregation induced by collagen; assay type: cell-based, human; settings: platelet-rich plasma
Source text: (§1) 2. The inhibiting action upon thrombocyte aggregation was ascertained by the method of Born and Cross, J. Physiol. 170, 397 (1964), in the platelet-rich plasma of healthy human test subjects, by photometrically ascertaining and registering the rate of decrease of the optical density after addition of (a) adenosine diphosphate (ADP). The angle of inclination of the density curve is a measure of the rate of aggregration (V max.). The point on the curve which corresponded to the greatest light-permeability was used for calculation of the optical density (o.D.).
(b) Aggregration with collagen
The procedure is the same as described under (a). To provoke aggregation commercial collagen was used, containing 1 mgm of collagen fibrils per 1 ml. To provoke maximum aggregation, about 0.01 ml of this collagen solution was added to 1 ml of platelet-rich plasma. Previously, the plasma was incubated at 37°C with varying quantities of test compound for 10 minutes each: […]

thrombocyte aggregation [2] = assay: inhibition of thrombocyte aggregation induced by adenosine diphosphate (ADP), Born and Cross; assay type: cell-based; settings: 10 min, platelet-rich human plasma, 10 min at 37°C, read-out: ED50 (concentration which reduces the maximum light-permeability after addition of ADP by 50%)
Source text: as §1
The ADP-doses were held to a minimum, but still sufficiently large to result in an irreversible aggregation. Prior to addition of ADP, each plasma sample was incubated for 10 minutes at 37°C with various amounts of the test compound. From the data thus obtained, the median effective amount of test compound (ED50), i.e. the concentration which reduces the maximum light-permeability in platelet-rich plasma after addition of ADP by 50%, was calculated.

[3] = acute toxicity in white mice after oral or intravenous administration; assay type: in vivo; settings: observation time 14 days; for LD50 at 336 h: mouse, in vivo; for animals died: 250 mgm/kg p.o.
Description: 4. The acute toxicities of the compounds were determined in white mice (observation time: 14 days) after oral or intravenous adminstration. The LD50 was calculated from the percentage of animals which died after different doses within the observation time [see Finney et al in Probit Analysis, third Edition, Cambridge (1971)].

[4] = po, read-out: Toxicity (p.o. bound)

SMILES	Inhibition in % (platelet stickiness) (platelet stickiness; 3×10^^-5 mol/liter)	% Prolongation of bleeding time (bleeding time; 1 hour after application)	% inhibition of O.D. (thrombocyte aggregation [1]; 10^^-4 mol/liter)	% inhibition of Vmax (thrombocyte aggregation [1]; 10^^-4 mol/liter)	% inhibition of O.D. (thrombocyte aggregation [1]; 10^^-5 mol/liter)	% inhibition of Vmax (thrombocyte aggregation [1]; 10^^-5 mol/liter)	IC50 (thrombocyte aggregation [2])	% Prolongation of bleeding time (bleeding time; 3 hours after application)	LD50 at 336 h ([3]; iv, read-out: LD50)	LD50 at 336 h ([3]; po, read-out: LD50)	% inhibition of O.D. (thrombocyte aggregation [1]; 3.10^^-5 mol/liter)	% inhibition of Vmax (thrombocyte aggregation [1]; 3.10^^-5 mol/liter)	Inhibition in % (platelet stickiness) (platelet stickiness; 5×10^^-5 mol/liter)	animals died [3]	LD50 at 336 h [3, 4]	Inhibition in % (platelet stickiness) (platelet stickiness; 10^^-4 mol/liter)
c1ccc2c(N3CCSCC3)nc(N3CCNCC3)cc2c1 [A, 1-thiomorpholino-3-piperazino-isoquinoline]	18%	90%	100%	100%	62%	51%	–	–	–	–	–	–	–	–	–	–
[O-][S+]1CCN(c2nc(N3CCNCC3)cc3ccccc23)CC1 [B, 1-(1-oxido-thiomorpholino)-3-piperazino-isoquinoline]	33%	83%	–	–	80%	75%	30 µM	16%	123 mg/kg	940 mg/kg	96%	96%	–	–	–	–
CN1CCN(c2cc3ccccc3c(N3CCOCC3)n2)CC1 [C, 1-morpholino-3-(N'-methyl-piperazino)-isoquinoline]	–	85%	–	–	–	–	–	–	–	–	–	–	50%	2 out of 5	> 250 mg/kg	–
[O-][S+]1CCN(c2nc(N3CCNCC3)cc3c(Cl)cccc23)CC1 [Compound E, 1-(1-oxido-thiomorpholino)-3-piperazino-5-chloro-isoquinoline]	–	146%	–	–	100%	100%	–	–	–	–	–	–	–	0 out of 5	> 250 mg/kg	92%
Cc1cccc2c(N3CC[S+]([O-])CC3)nc(N3CCNCC3)cc12 [D, 1-(1-oxido-thiomorpholino)-3-piperazino-5-methyl-isoquinoline]	–	78%	–	–	–	–	–	–	–	–	100%	100%	–	0 out of 5	> 250 mg/kg	86%
COc1cccc2c(N3CC[S+]([O-])CC3)nc(N3CCNCC3)cc12 [F, 1-(1-oxido-thiomorpholino)-3-piperazino-5-methoxy-isoquinoline]	–	117%	–	–	100%	100%	–	–	–	–	–	–	–	–	–	70%
